Consider 20 compounds from patent US8829011B2 (Janssen Pharmaceutica NV, priority 2008, dated 2014).

Structures can show the parent of a compound that is named as a salt.

Experiment [1] deals with T1, human recombinant 5-HT2B receptor (Homo sapiens, UniProt P41595).
T1 construct: expressed in transfected cells; host or cells: CHO
In words: Affinity for 5-HT2B receptor binding sites (competitive radioligand binding, [3H]mesulergine). The conditions noted are these: membranes of CHO with h5-HT2B, * = tested as hydrochloride salt. The gist of the method: (§1)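 Membranes from NIH3T3 cells stably expressing h5-HT2A or CHO cells stably expressing h5-HT2B/h5-HT2C; [3H]ketanserin used for 5-HT2A, [3H]mesulergine for 5-HT2B/2C. Compounds from 10 mM DMSO stocks, final DMSO ≤0.4%. Affinity from sigmoidal inhibition curves fitted by nonlinear regression.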

Experiment [2] has as its target T2, human recombinant 5-HT2C receptor (Homo sapiens, UniProt P28335).
T2 construct: expressed in transfected cells; host or cells: CHO
T2 sequence (P28335 33-458): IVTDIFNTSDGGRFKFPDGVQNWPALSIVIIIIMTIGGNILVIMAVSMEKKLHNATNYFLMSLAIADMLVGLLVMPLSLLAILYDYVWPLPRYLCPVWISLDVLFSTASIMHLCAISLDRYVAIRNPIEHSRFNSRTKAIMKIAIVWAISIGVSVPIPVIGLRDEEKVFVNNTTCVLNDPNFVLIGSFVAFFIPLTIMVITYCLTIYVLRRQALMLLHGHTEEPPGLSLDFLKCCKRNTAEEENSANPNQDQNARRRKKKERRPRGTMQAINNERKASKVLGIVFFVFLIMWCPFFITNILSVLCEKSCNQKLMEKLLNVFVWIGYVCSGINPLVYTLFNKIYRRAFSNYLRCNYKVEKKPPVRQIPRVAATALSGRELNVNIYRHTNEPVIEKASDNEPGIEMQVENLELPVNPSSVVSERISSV
In words: Affinity for 5-HT2C receptor binding sites (competitive radioligand binding, [3H]mesulergine). The settings on record: membranes of CHO with h5-HT2C, * = tested as hydrochloride salt. The gist of the method:
as §1

In another experiment the target is T3, rat 5-HT7a receptor (Rattus norvegicus, UniProt P32305).
T3 construct: expressed in transfected cells; host or cells: HEK-293
T3 sequence (P32305 whole entry): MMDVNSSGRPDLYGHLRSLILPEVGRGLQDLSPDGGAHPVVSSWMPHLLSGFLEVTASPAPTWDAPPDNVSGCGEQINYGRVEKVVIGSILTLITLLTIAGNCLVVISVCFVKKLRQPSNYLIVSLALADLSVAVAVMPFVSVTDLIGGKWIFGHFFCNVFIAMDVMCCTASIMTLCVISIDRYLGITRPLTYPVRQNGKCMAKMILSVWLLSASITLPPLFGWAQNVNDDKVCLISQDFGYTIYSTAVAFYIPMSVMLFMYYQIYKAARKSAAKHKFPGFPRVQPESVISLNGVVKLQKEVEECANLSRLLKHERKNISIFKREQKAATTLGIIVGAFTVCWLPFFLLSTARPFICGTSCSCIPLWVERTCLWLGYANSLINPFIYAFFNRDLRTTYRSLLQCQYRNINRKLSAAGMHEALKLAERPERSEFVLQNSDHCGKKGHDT
Description: Affinity for 5-HT7 receptor binding sites (competition radioligand binding, [3H]5-CT). The settings on record: membranes of HEK-293 cells with rat 5-HT7a; 1 nM [3H]5-CT; * = tested as hydrochloride salt. The method, then:
Stock drug solutions (10 mM) were prepared in DMSO (the final assay concentration of DMSO not exceeding 0.4%). Drug dilutions were prepared in assay buffer.
Sigmoidal inhibition curves were generated and fitted by nonlinear regression analysis (GraphPad Prism).
1. Affinity for 5-HT7 Receptor Binding Sites
The affinity of the compounds described in this invention for the 5-HT7 receptor binding site was evaluated by single competition radioligand binding assay. The assay was performed on membranes prepared from HEK-293 cells that had been subjected to stable transfection with the rat 5-HT7a receptor (GB: NM022938). Cells were scraped from the culture plates, suspended in Tris-HCl 50 mM pH 7.5 and collected through centrifugation (1000 rpm for 5 min). The cell pellets were homogenized (Polytron, 15 s, setting 5) in 50 mM Tris-HCl (pH 7.5), 5 mM EDTA. Following centrifugation (15,000 rpm for 25 min), membranes (135 μg protein/mL) were resuspended in the same buffer and incubated for 60 min at RT with 1 nM [^3H]5-CT in the presence of increasing concentration of test compounds. Nonspecific binding was defined in the presence of 10 μM 5-HT. Incubation was stopped by rapid filtration using the cell harvester (Packard). Radioactivity was counted in a TopCount-NXT (Packard). Experiments were conducted in triplicate.

In experiment [3] the target is T4, human recombinant 5-HT6 receptor (Homo sapiens, UniProt P50406).
T4 construct: expressed in transfected cells; host or cells: HEK-293
T4 sequence (P50406 whole entry): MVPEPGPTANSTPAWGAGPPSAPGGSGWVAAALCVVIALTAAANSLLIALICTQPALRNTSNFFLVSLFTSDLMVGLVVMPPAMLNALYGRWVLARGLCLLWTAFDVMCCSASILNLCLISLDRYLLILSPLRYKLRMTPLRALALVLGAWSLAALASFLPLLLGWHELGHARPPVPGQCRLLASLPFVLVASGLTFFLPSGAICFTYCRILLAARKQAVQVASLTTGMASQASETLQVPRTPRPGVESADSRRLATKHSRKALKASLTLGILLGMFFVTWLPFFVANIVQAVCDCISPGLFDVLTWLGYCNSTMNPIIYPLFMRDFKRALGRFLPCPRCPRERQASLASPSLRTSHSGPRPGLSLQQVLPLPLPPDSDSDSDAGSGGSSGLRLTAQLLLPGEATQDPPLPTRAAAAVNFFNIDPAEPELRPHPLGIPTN
Description: Affinity for 5-HT6 receptor binding sites (competitive radioligand binding, [3H]LSD). The settings on record: membranes of HEK-293 with h5-HT6, * = tested as hydrochloride salt. An outline of the steps:
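Membranes from HEK-293 cells stably expressing human 5-HT6, competition against [3H]LSD; nonspecific binding defined with 1 μM clozapine. DMSO ≤0.4% final. Inhibition curves fitted by nonlinear regression.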

Experiment [4] has as its target T5, human recombinant 5-HT2A receptor (Homo sapiens, UniProt P28223).
T5 construct: expressed in transfected cells; host or cells: NIH3T3
Description: Affinity for 5-HT2A receptor binding sites (competitive radioligand binding, [3H]ketanserin). The conditions noted are these: membranes of NIH3T3 with h5-HT2A, * = tested as hydrochloride salt. An outline of the steps: as §1

T5 sequence (P28223 whole entry): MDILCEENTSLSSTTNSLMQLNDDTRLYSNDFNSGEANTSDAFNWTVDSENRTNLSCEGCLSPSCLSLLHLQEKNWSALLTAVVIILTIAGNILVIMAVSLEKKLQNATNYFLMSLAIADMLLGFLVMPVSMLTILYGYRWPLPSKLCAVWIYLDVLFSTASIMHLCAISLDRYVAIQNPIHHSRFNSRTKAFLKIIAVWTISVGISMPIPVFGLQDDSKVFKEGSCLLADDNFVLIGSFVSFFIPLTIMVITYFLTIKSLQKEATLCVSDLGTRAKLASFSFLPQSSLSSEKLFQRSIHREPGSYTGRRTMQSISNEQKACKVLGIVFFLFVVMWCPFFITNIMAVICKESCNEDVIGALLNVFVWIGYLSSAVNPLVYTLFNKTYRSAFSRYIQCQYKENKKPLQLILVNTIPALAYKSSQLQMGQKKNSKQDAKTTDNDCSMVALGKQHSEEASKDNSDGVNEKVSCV
T1 sequence (P41595 whole entry): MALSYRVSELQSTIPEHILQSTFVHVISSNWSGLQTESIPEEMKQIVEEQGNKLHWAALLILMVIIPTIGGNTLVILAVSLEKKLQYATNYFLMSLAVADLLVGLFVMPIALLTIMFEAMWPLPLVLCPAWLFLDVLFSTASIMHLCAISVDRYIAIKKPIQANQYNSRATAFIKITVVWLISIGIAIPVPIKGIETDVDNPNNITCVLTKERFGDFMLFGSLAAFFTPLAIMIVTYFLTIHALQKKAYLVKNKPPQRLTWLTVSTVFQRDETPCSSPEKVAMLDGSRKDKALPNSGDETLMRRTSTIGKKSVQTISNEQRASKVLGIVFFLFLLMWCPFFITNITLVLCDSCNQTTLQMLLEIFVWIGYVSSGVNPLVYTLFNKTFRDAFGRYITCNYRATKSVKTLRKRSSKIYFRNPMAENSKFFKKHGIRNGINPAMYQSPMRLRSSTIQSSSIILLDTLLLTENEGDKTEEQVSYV

Broadly, the Ki is the equilibrium dissociation constant of an inhibitor or competing ligand from its target. Take `CCN(CC)c1nc2c(c(-c3ccc(F)cc3)n1)CCCNC2` [Example 1, Diethyl-[4-(4-fluoro-phenyl)-6,7,8,9-tetrahydro-5H-pyrimido[4,5-c]azepin-2-yl]-amine]: the Ki in experiment [1] is 32 nM; in experiment [2], 300 nM; on rat 5-HT7a receptor, 470 nM; in experiment [3], 2260 nM; in experiment [4], 20 nM.
Taken in the same sequence, the figures for `CCN(CC)c1nc2c(c(-c3ccc(C)cc3)n1)CCCNC2` [Example 2] were 25 nM, 430 nM, 220 nM, 300 nM and 170 nM.
Regarding `CCN(CC)c1nc2c(c(-c3ccc(OC)cc3)n1)CCCNC2` [Example 3, Diethyl-[4-(4-methoxy-phenyl)-6,7,8,9-tetrahydro-5H-pyrimido[4,5-c]azepin-2-yl]-amine], the Ki in experiment [1] is 20 nM; in experiment [2], 400 nM; on rat 5-HT7a receptor it was 240 nM; in experiment [3] it was 160 nM; in experiment [4] it was 200 nM.
Turning to `CCN(CC)c1nc2c(c(-c3ccc(C#N)cc3)n1)CCCNC2` [Example 4, 4-(2-Diethylamino-6,7,8,9-tetrahydro-5H-pyrimido[4,5-c]azepin-4-yl)-benzonitrile], the Ki came out at 100 nM in experiment [1]; 9000 nM in experiment [2]; 920 nM on rat 5-HT7a receptor; 3750 nM in experiment [3]; 240 nM in experiment [4].
For the compound `COc1ccc(-c2nc(N3CCCCC3C)nc3c2CCCNC3)cc1` (stereo not drawn) [Example 5, 4-(4-Methoxy-phenyl)-2-(2-methyl-piperidin-1-yl)-6,7,8,9-tetrahydro-5H-pyrimido[4,5-c]azepine hydrochloride], the Ki in experiment [1] was 200 nM; in experiment [2] it was 1800 nM; at rat 5-HT7a receptor, above 10000 nM; in experiment [3] it was 127 nM; in experiment [4] it was 1500 nM.
Taken in the same sequence, the figures for `CC1CCCCN1c1nc2c(c(-c3ccc(F)cc3)n1)CCCNC2` (stereo not drawn) [Example 6, 4-(4-Fluoro-phenyl)-2-(2-methyl-piperidin-1-yl)-6,7,8,9-tetrahydro-5H-pyrimido[4,5-c]azepine] were 200 nM, 1000 nM, above 10000 nM, 310 nM and 200 nM.
Taken in the same sequence, the figures for `CC1CCCCN1c1nc2c(c(-c3ccc(C#N)cc3)n1)CCCNC2` (stereo not drawn) [Example 7, 4-[2-(2-Methyl-piperidin-1-yl)-6,7,8,9-tetrahydro-5H-pyrimido[4,5-c]azepin-4-yl]-benzonitrile] were 280 nM, 3200 nM, above 10000 nM, 1240 nM and 400 nM.
Taken in the same sequence, the figures for `Cc1ccc(-c2nc(N3CCCCC3C)nc3c2CCCNC3)cc1` (stereo not drawn) [Example 8, 2-(2-Methyl-piperidin-1-yl)-4-p-tolyl-6,7,8,9-tetrahydro-5H-pyrimido[4,5-c]azepine] were 100 nM, 2000 nM, 500 nM, 68 nM and 180 nM.
Turning to `CCN(CC)c1nc2c(c(-c3ccc(F)cc3)n1)CCNCC2` [Example 9, Diethyl-[4-(4-fluoro-phenyl)-6,7,8,9-tetrahydro-5H-pyrimido[4,5-d]azepin-2-yl]-amine hydrochloride], the Ki came to 7 nM in experiment [1]; 40 nM in experiment [2]; 29 nM at rat 5-HT7a receptor; 84 nM in experiment [3]; 20 nM in experiment [4].
Taken in the same sequence, the figures for `CCN(CC)c1nc2c(c(-c3ccncc3)n1)CCNCC2` [Example 10, Diethyl-(4-pyridin-4-yl-6,7,8,9-tetrahydro-5H-pyrimido[4,5-d]azepin-2-yl)-amine hydrochloride] were 50 nM, above 10000 nM, 1200 nM, 1460 nM and 500 nM.
Taken in the same sequence, the figures for `CCN(CC)c1nc2c(c(-c3ccc(C)cc3)n1)CCNCC2` [Example 11, Diethyl-(4-p-tolyl-6,7,8,9-tetrahydro-5H-pyrimido[4,5-d]azepin-2-yl)-amine hydrochloride] were 5 nM, 63 nM, 40 nM, 25 nM and 4 nM.
Taken in the same sequence, the figures for `CCN(CC)c1nc2c(c(-c3ccsc3)n1)CCNCC2` [Example 12, Diethyl-(4-thiophen-3-yl-6,7,8,9-tetrahydro-5H-pyrimido[4,5-d]azepin-2-yl)-amine hydrochloride] were 3.2 nM, 50 nM, 40 nM, 80 nM and 30 nM.
`N#Cc1ccc(-c2nc(N3CCCCCC3)nc3c2CCN(Cc2ccccc2)C3)cc1` [Example 37, 4-(2-Azepan-1-yl-7-benzyl-5,6,7,8-tetrahydro-pyrido[3,4-d]pyrimidin-4-yl)-benzonitrile]: the Ki is 1300 nM in experiment [1], above 10000 nM in experiment [2], above 10000 nM at rat 5-HT7a receptor and 2400 nM in experiment [4].
Consider `Fc1ccc(-c2nc(N3CCCC3)nc3c2CNCC3)cc1` [Example 41, 4-(4-Fluoro-phenyl)-2-pyrrolidin-1-yl-5,6,7,8-tetrahydro-pyrido[4,3-d]pyrimidine hydrochloride], for which the Ki in experiment [1] was 750 nM; in experiment [2], 940 nM; at rat 5-HT7a receptor it was above 10000 nM; in experiment [4], 25 nM.
On to `CCN(C)c1nc2c(c(-c3ccc(F)cc3)n1)CNCC2` [Example 44, Ethyl-[4-(4-fluoro-phenyl)-5,6,7,8-tetrahydro-pyrido[4,3-d]pyrimidin-2-yl]-methyl-amine hydrochloride], for which the Ki was 180 nM in experiment [1], 300 nM in experiment [2], 2000 nM on rat 5-HT7a receptor and 9.5 nM in experiment [4].
Taken in the same sequence, the figures for `CCN(CC)c1nc2c(c(-c3ccc(Cl)cc3)n1)CNCC2` [Example 46, [4-(4-Chloro-phenyl)-5,6,7,8-tetrahydro-pyrido[4,3-d]pyrimidin-2-yl]-diethyl-amine hydrochloride] were 200 nM, 250 nM, 100 nM and 30 nM.
Taken in the same sequence, the figures for `Cc1ccc(-c2nc(N3CCCC3)nc3c2CNCC3)cc1` [Example 47, 2-Pyrrolidin-1-yl-4-p-tolyl-5,6,7,8-tetrahydro-pyrido[4,3-d]pyrimidine] were 500 nM, 1600 nM, above 10000 nM and 120 nM.
Taken in the same sequence, the figures for `CC1CCCN1c1nc2c(c(-c3ccc(Cl)cc3)n1)CCNCC2` (stereo not drawn) [Example 54, 4-(4-Chloro-phenyl)-2-(2-methyl-pyrrolidin-1-yl)-6,7,8,9-tetrahydro-5H-pyrimido[4,5-d]azepine] were 5 nM, 89 nM, 370 nM and 30 nM.
Consider `Clc1ccc(-c2nc(NCc3ccccc3)nc3c2CCNCC3)cc1` [Example 56, Benzyl-[4-(4-chloro-phenyl)-6,7,8,9-tetrahydro-5H-pyrimido[4,5-d]azepin-2-yl]-amine], for which the Ki is 45 nM in experiment [1], 40 nM in experiment [2], 9000 nM at rat 5-HT7a receptor and 1.4 nM in experiment [4].
For the compound `CCN(CC)c1nc2c(c(-c3ccc(Cl)cc3)n1)CNCCC2` [Example 59, [4-(4-Chloro-phenyl)-6,7,8,9-tetrahydro-5H-1,3,6-triaza-benzocyclohepten-2-yl]-diethyl-amine hydrochloride], the Ki on rat 5-HT7a receptor is above 10000 nM; in experiment [3], 1480 nM.
